Our source for the AC50 values is ChEMBL document CHEMBL5291721, “A preclinical secondary pharmacology resource illuminates target-adverse drug reaction associations of marketed drugs” (Nat Commun, 2023).

By AC50 is commonly meant the midpoint of the concentration-response curve, whichever way the signal moves.

Targets include D(1A) dopamine receptor (Homo sapiens, UniProt P21728); Histamine H3 receptor (Homo sapiens, UniProt Q9Y5N1); Mu-type opioid receptor (Homo sapiens, UniProt P35372).
The next test has as its target Acetylcholinesterase (Homo sapiens, UniProt P22303). The class given is functional.
Test [1] concerns the target T1, Alpha-1A adrenergic receptor (Homo sapiens, UniProt P35348).
T1 sequence (P35348 whole entry): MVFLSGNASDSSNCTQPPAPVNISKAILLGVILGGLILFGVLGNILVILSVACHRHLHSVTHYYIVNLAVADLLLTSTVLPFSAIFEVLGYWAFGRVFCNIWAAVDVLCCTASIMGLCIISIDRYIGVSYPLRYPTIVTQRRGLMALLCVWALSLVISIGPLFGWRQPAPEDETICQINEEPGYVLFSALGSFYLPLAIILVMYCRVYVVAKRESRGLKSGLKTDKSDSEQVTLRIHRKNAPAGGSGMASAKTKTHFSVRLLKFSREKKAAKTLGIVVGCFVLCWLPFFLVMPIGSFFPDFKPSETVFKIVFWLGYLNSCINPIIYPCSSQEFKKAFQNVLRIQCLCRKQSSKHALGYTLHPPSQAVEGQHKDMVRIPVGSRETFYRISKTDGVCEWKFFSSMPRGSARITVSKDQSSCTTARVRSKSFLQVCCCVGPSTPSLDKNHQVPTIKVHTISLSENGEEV
The class given is functional, cell-based.

Test [2] addresses T2, Alpha-2A adrenergic receptor (Homo sapiens, UniProt P08913).
T2 sequence (P08913 whole entry): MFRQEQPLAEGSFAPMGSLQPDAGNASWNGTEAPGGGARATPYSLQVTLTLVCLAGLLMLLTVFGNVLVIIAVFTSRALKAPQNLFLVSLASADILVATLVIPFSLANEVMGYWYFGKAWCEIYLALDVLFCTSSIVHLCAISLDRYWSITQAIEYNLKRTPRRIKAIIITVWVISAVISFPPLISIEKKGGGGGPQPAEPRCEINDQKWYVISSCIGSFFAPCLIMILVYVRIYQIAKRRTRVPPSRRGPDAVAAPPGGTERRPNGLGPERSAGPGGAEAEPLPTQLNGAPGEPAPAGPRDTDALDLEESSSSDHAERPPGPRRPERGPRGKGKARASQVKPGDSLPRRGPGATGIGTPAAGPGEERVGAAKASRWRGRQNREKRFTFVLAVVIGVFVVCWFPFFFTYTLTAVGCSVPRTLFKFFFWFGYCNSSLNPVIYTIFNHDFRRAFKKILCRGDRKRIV

Test [3] addresses T3, Muscarinic acetylcholine receptor M2 (Homo sapiens, UniProt P08172).
T3 sequence (P08172 whole entry): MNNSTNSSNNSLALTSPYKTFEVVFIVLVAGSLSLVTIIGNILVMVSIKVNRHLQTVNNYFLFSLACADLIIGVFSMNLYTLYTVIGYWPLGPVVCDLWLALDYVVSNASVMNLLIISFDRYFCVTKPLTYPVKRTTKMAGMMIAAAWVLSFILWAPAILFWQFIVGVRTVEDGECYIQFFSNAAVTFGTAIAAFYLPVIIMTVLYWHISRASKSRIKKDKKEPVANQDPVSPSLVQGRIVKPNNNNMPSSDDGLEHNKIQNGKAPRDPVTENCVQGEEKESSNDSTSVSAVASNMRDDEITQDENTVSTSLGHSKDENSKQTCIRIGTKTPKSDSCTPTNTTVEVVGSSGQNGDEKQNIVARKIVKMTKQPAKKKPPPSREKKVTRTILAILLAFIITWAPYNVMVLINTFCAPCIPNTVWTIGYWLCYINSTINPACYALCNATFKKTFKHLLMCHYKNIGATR

A further test has as its target Prothrombin (Homo sapiens, UniProt P00734). The class given is functional.
The target in test [4] is Voltage-gated inwardly rectifying potassium channel KCNH2 (Homo sapiens, UniProt Q12809). The class given is functional. As to conditions: read-out: AC50.
Test [5] has as its target cGMP-inhibited 3',5'-cyclic phosphodiesterase 3A (Homo sapiens, UniProt Q14432). The test is classed as functional.
For test [6], the target named is Prostaglandin G/H synthase 1 (Homo sapiens, UniProt P23219). The class given is functional.
Test [7] concerns the target Sodium-dependent dopamine transporter (Homo sapiens, UniProt Q01959).
For test [8], the target named is Sodium-dependent serotonin transporter (Homo sapiens, UniProt P31645).
For test [9], the target named is T4, Thromboxane A2 receptor (Homo sapiens, UniProt P21731).
T4 sequence (P21731 whole entry): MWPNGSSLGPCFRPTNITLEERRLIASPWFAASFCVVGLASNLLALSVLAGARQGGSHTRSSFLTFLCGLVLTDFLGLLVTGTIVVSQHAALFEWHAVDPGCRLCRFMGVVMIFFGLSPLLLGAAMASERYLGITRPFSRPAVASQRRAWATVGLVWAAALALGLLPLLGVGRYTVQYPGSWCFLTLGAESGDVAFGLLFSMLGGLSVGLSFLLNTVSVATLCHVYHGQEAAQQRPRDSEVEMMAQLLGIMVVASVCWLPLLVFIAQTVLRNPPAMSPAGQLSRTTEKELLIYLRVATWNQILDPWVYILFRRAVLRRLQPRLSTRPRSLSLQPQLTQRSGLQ
The class given is functional, cell-based.

For test [10], the target named is T4, Thromboxane A2 receptor. The class given is functional, cell-based. The source holds these as a separate data set.
Also: assay procedure not described here.

Histamine H3 receptor, sequence (Q9Y5N1 whole entry): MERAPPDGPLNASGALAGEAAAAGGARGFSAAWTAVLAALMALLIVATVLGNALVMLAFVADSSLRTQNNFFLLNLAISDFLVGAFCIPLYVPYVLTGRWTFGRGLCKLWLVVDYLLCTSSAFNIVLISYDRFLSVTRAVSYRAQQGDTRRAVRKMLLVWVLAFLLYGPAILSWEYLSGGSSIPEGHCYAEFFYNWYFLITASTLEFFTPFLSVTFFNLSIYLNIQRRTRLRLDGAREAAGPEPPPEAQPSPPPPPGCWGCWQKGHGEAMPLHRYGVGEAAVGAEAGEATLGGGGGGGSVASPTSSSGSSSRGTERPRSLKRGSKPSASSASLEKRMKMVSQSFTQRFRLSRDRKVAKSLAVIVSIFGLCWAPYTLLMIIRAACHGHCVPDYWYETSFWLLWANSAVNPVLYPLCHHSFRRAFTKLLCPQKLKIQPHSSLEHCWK
cGMP-inhibited 3',5'-cyclic phosphodiesterase 3A, sequence (Q14432 whole entry): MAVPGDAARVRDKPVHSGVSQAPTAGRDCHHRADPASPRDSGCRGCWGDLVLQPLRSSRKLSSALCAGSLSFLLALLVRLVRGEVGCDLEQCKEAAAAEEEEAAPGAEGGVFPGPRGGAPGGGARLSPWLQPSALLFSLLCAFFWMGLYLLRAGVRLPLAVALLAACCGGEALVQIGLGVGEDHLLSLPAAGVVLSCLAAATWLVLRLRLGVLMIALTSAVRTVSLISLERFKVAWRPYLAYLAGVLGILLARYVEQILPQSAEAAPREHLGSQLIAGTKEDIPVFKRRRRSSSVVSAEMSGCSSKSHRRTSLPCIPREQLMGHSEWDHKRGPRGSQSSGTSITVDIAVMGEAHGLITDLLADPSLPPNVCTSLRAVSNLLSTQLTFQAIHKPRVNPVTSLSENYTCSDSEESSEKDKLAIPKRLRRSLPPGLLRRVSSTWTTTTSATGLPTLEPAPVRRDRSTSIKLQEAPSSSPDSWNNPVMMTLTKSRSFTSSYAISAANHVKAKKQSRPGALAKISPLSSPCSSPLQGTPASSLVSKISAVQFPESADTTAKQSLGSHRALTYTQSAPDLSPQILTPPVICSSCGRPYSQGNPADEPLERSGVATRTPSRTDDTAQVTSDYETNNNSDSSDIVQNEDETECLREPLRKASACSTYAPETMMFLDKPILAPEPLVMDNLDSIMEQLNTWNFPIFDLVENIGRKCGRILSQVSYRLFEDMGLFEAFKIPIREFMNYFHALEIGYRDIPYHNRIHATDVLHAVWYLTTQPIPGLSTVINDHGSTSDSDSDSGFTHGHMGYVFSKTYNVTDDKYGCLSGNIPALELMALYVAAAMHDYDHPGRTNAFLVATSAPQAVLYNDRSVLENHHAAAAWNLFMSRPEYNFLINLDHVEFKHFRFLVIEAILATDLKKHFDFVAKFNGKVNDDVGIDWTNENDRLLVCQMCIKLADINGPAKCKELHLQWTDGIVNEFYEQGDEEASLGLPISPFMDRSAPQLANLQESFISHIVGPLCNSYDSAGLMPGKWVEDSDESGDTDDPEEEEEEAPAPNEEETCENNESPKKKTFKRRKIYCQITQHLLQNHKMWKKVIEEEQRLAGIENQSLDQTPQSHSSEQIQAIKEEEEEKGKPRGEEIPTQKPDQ
D(1A) dopamine receptor, sequence (P21728 whole entry): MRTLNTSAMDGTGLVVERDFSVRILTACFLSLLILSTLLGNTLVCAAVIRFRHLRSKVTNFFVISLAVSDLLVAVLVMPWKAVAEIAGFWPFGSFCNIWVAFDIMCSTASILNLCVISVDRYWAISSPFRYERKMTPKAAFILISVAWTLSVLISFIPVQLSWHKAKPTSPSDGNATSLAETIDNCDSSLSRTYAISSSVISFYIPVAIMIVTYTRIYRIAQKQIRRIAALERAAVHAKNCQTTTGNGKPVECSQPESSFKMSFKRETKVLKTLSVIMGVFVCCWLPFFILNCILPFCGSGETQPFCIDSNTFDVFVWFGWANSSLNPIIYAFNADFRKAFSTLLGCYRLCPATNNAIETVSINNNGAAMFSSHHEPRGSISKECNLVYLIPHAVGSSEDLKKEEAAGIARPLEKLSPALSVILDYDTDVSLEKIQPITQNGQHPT
Sodium-dependent serotonin transporter, sequence (P31645 whole entry): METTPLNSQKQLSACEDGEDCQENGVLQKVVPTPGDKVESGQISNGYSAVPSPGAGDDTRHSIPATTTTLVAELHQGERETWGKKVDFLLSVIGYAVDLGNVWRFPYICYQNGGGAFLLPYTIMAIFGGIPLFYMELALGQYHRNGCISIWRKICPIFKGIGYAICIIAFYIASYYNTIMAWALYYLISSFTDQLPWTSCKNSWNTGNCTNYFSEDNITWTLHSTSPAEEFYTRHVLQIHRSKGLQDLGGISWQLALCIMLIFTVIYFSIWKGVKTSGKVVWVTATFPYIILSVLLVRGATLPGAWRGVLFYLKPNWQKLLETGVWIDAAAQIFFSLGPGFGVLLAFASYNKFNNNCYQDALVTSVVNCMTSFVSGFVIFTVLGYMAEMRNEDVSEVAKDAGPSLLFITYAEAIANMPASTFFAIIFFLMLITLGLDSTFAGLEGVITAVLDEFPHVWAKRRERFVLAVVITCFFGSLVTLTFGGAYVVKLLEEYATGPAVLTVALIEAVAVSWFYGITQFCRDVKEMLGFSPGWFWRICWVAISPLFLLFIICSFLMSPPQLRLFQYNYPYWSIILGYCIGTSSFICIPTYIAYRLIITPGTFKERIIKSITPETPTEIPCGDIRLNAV
Acetylcholinesterase, sequence (P22303 whole entry): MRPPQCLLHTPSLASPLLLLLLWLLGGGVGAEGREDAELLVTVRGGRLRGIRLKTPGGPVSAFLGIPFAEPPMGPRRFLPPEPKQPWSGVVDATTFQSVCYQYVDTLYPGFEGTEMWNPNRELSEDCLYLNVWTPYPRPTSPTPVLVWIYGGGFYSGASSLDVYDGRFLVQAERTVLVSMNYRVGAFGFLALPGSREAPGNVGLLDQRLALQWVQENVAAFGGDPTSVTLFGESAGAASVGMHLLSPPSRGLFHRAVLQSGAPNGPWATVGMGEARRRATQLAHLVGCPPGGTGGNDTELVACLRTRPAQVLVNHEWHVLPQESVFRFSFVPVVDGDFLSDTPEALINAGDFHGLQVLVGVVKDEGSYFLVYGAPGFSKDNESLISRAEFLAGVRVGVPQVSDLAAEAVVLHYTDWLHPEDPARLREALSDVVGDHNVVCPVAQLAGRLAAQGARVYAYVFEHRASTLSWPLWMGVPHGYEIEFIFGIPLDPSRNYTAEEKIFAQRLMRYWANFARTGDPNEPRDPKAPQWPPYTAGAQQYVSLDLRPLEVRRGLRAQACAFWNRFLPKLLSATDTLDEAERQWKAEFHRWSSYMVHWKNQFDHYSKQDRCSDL
Prostaglandin G/H synthase 1, sequence (P23219 whole entry): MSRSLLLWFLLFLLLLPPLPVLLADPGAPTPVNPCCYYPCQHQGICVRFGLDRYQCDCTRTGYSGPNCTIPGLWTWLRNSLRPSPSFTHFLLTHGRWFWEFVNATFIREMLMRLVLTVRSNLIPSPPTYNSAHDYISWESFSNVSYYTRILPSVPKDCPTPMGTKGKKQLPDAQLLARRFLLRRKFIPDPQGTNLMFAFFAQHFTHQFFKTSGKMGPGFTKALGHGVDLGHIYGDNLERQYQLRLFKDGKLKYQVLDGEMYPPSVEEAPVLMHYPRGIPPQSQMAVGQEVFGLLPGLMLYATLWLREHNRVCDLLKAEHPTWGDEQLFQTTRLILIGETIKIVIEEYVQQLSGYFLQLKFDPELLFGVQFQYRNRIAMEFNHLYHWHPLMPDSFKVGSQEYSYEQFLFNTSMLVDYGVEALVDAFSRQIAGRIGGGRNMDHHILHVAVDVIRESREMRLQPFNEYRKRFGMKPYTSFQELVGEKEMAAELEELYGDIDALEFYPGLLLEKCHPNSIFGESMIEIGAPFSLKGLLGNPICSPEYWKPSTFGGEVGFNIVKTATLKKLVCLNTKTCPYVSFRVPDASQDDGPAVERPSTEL
Mu-type opioid receptor, sequence (P35372 whole entry): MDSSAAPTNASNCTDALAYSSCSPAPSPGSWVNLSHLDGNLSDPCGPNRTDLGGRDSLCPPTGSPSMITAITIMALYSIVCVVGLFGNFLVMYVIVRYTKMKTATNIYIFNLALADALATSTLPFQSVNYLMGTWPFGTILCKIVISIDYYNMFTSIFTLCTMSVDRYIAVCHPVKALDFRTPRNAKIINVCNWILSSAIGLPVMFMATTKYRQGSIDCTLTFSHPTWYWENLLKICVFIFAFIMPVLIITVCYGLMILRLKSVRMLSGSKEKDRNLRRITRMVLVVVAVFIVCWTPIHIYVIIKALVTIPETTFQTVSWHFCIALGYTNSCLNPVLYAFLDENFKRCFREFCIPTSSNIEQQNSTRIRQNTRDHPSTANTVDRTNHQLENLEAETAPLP
Sodium-dependent dopamine transporter, sequence (Q01959 whole entry): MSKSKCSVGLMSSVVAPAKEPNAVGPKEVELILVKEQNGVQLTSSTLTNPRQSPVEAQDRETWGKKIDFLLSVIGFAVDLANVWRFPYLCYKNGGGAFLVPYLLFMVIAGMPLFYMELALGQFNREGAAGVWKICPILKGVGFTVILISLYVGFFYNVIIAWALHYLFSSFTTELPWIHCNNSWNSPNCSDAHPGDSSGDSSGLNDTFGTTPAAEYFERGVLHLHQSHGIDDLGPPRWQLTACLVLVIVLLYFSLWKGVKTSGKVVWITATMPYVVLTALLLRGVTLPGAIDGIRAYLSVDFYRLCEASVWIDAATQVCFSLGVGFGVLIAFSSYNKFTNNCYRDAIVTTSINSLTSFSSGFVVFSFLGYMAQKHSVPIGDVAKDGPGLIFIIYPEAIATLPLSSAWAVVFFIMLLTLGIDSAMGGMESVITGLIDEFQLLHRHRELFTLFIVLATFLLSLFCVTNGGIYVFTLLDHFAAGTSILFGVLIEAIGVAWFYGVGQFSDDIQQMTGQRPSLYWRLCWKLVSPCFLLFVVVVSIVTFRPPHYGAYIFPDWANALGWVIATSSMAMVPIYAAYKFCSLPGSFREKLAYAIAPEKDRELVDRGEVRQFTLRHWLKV

`CO/N=C(\C(=O)N[C@@H]1C(=O)N2C(C(=O)[O-])=C(C[n+]3cccc4c3CCC4)CS[C@H]12)c1csc(N)n1` [CEFPIROME]: the AC50 (at Acetylcholinesterase; in test [1]; in test [2]; in [3]; on D(1A) dopamine receptor; at Prothrombin) was over 30 µM in each case. In addition, the AC50 (at Histamine H3 receptor; in test [4]; on Mu-type opioid receptor; in test [5]; in test [6]; in [7]) was over 30 µM each time. Besides, the AC50 (in [8]; on Thromboxane A2 receptor [9]; on Thromboxane A2 receptor [10]) was over 30 µM each time.
As for `Nc1ncnc(Nc2ccc(Cl)cc2)n1` [CHLORAZANIL], the AC50 (on Acetylcholinesterase; in [1]; in test [2]; in [3]; at D(1A) dopamine receptor; on Prothrombin) was over 30 µM each time. The AC50 (at Histamine H3 receptor; in test [4]; at Mu-type opioid receptor; in test [5]; in test [6]; in test [7]) was over 30 µM throughout. The AC50 (in test [8]; on Thromboxane A2 receptor [9]; on Thromboxane A2 receptor [10]) was over 30 µM in each case.
In the case of `CCC[C@@H]1C[C@@H](C(=O)N[C@@H]([C@H]2O[C@H](SC)[C@H](OP(=O)(O)O)[C@@H](O)[C@H]2O)[C@H](C)Cl)N(C)C1` [CLINDAMYCIN PHOSPHATE], the AC50 (at Acetylcholinesterase; in [1]; in test [2]; in [3]; on D(1A) dopamine receptor; at Prothrombin) was over 30 µM throughout. Further, the AC50 (on Histamine H3 receptor; in test [4]; at Mu-type opioid receptor; in test [5]; in test [6]; in test [7]) was over 30 µM each time. Moreover, the AC50 (in test [8]; at Thromboxane A2 receptor [9]; at Thromboxane A2 receptor [10]) was over 30 µM in each case.
As to `Cc1onc(-c2c(Cl)cccc2Cl)c1C(=O)N[C@@H]1C(=O)N2[C@@H]1SC(C)(C)[C@@H]2C(=O)O` [DICLOXACILLIN], the AC50 (at Acetylcholinesterase; in test [1]; in test [2]; in [3]; at D(1A) dopamine receptor; at Prothrombin) was over 30 µM in each case. For the same compound, the AC50 (on Histamine H3 receptor; in test [4]; at Mu-type opioid receptor; in test [5]; in test [6]; in test [7]) was over 30 µM throughout. The AC50 (in test [8]; at Thromboxane A2 receptor [9]; on Thromboxane A2 receptor [10]) was over 30 µM throughout.
As to `C[C@@H](O)[C@H]1C(=O)N2C(C(=O)O)=C([C@H]3CCCO3)S[C@H]12` [FAROPENEM], the AC50 (at Acetylcholinesterase; in test [1]; in test [2]; in test [3]; on D(1A) dopamine receptor; at Prothrombin) was over 30 µM each time. Besides, the AC50 on Histamine H3 receptor is over 30 µM; in test [4], over 30 µM; at Mu-type opioid receptor, over 30 µM; in test [5], over 30 µM; in test [6] it was 11.4 µM; in test [7] it was over 30 µM. Also, the AC50 (in test [8]; on Thromboxane A2 receptor [9]; on Thromboxane A2 receptor [10]) was over 30 µM throughout.
On to `CCOC(=O)c1ccc(OC(=O)CCCCCNC(=N)N)cc1` [GABEXATE], for which the AC50 on Acetylcholinesterase was over 30 µM; in test [1] it was over 30 µM; in test [2], over 30 µM; in test [3], 1.49 µM; on D(1A) dopamine receptor, over 30 µM; on Prothrombin it was 0.17 µM. The concentration at half-maximal activity (AC50) at Histamine H3 receptor is over 30 µM; in [4], 25 µM; at Mu-type opioid receptor, over 30 µM; in [5], over 30 µM; in [6], over 30 µM; in [7], 14.8 µM. The AC50 (in test [8]; on Thromboxane A2 receptor [9]; on Thromboxane A2 receptor [10]) was over 30 µM in each case.
Turning to `CCCCC/C=C\C/C=C\C/C=C\CCCCC(=O)O` [GAMOLENIC ACID], the AC50 (on Acetylcholinesterase; in test [1]; in test [2]; in test [3]; on D(1A) dopamine receptor; at Prothrombin) was over 30 µM in each case. Further, the AC50 at Histamine H3 receptor was over 30 µM; in test [4] it was over 30 µM; on Mu-type opioid receptor it was over 30 µM; in test [5], over 30 µM; in test [6] it was 4.91 µM; in test [7], over 30 µM. For the same compound, the AC50 (in [8]; at Thromboxane A2 receptor [9]; on Thromboxane A2 receptor [10]) was over 30 µM in each case.
Regarding `COCCOc1cnc(NS(=O)(=O)c2ccccc2)nc1` [GLYMIDINE], the AC50 (on Acetylcholinesterase; in [1]; in test [2]; in [3]; on D(1A) dopamine receptor; at Prothrombin) was over 30 µM each time. For the same compound, the AC50 (on Histamine H3 receptor; in test [4]; at Mu-type opioid receptor; in test [5]; in test [6]; in test [7]) was over 30 µM throughout. Further, the AC50 (in test [8]; on Thromboxane A2 receptor [9]; at Thromboxane A2 receptor [10]) was over 30 µM in each case.
With `CCC(=O)O[C@]1(C(=O)COC(C)=O)CC[C@H]2[C@@H]3CCC4=CC(=O)CC[C@]4(C)[C@H]3[C@@H](O)C[C@@]21C` [HYDROCORTISONE ACEPONATE], the AC50 (at Acetylcholinesterase; in [1]; in test [2]; in test [3]; on D(1A) dopamine receptor; on Prothrombin) was over 30 µM throughout. For the same compound, the AC50 (at Histamine H3 receptor; in test [4]; on Mu-type opioid receptor; in [5]; in test [6]; in test [7]) was over 30 µM throughout. The AC50 (in test [8]; at Thromboxane A2 receptor [9]; on Thromboxane A2 receptor [10]) was over 30 µM each time.
